This is an account of results in patent publication US20010046704A1, “Methods and compositions to activate genes in cells” (priority 2000, published 2001).

The subject of one test is mouse ES stem cells. Put plainly: Chemical mutagenesis of cell suspensions, cytotoxicity of the mutagen. As to conditions: cell suspensions (eg, mouse ES stem cells) exposed to doses as high as 0.4 mg/mL for 2 to 3 hours. Format: cell-based. An excerpt: In this regard, numerous chemical mutagens have been described and used in the past, as described for instance by Russell et al., Biology of Mammalian Germ Cell Mutagenesis, Cold Spring Harbor Laboratory Press, 1990:271-285; Rinchik E. M., Trends in Genetics, 1991;7(1):15-21; or Marker et al., Genetics, 1997;145(2):435-443. For mutagenesis, cells are preferably treated with increasing amounts of the chemical mutagen(s) either in whole animals or in cell suspensions, to assess the cytotoxicity of the chemical mutagen(s). Typical doses have been described in the literature as cited above. For example, cell suspensions (eg, mouse ES stem cells) are exposed to doses of N-ethyl-N-nitrosourea (ENU) as high as 0.4 mg/mL for 2 to 3 hours, which results in more than 98% of the cells dying. […] Other mutagens include for instance intercalating agents, alkylating agents, strand breaking agents, mismatch-inducing agents, etc.

A further test relates to DNA. As to conditions: compared with other mutagenic agents; cited from earlier work.

Turning to `CCN(N=O)C(N)=O` [ENU, N-ethyl-N-nitrosourea], in the test with mouse ES stem cells, the cells dying result is given as “more than 98%”. Also, in the test with DNA, the “efficiency in generating mutations relative to other agents” value is listed as “at least 10 times”.
